The text below walks through data of US12239661B2, “Methods and compositions for treating undesired implanted tissue filler” (priority 2019, dated 2025).

Like-named read-outs stand apart in the source and are kept apart here. Marks after values point to notes of the source that are not given here.

The conditions of data set [1]: SC injection of 1.5 mL into filler nodule. As to the method:
(§1) A total of 7 CT-scans were performed at 1 h 15, 2 h, 4 h, 1 day (24 h), 3, 7 and 14 days after injection of the dermal filler. The clinical state of each animal is assessed once a week by body weight measurement and clinical observations.
On day 14, one pig received one SC injection of Radiesse® filler in order to represented a Day 0 injection which is considered a positive control and then, all pigs were euthanized and each nodule with a part of the skin, along with negative control skin (skin samples without injection), were sampled in order to perform histological analysis of, for example, the inflammation, the necrosis and the dermal filler presence at the injection site.

A short description of data set [2]: In vivo CT of filler nodule volume, density and 3D shape after test solutions 0-8 (Example 3). As to the method: One hour after filler injections (T=1 h), 1.5 mL of selected solutions (Table 5, solutions 0-8, test items, solution 0 is normal saline and not hyperosmotic) were injected each into 9 dermal filler nodules in the right flank (ventral area).
as §1
The 10 SC injections of dermal filler on Day 0 were performed in the ventral area, (five nodules on each flank of the ventral area) for each pig. For each SC nodule, a theoretical volume of 500 μl was administered. One hour (±5 min) after injection of dermal filler, SC injection of the different solutions (prepared the day before) were performed into nine (9) nodules of dermal. For each SC nodule, a theoretical volume of 1.5 mL of test solution was administered.
The X-ray computed tomography acquisitions were performed with the Computed Tomography Scanner BrightSpeed 16 (General Electric). In order to measure the volume and the mean density and to visualize the 3D shape of the dermal filler (Radiesse® filler with or without test solution) injected, in vivo CT-scans were performed on Day 0: 1 h 15 (±10 min), 2 h (±15 min) and 4 h (±20 min), on Day 1 (24 h+1 h), Day 3, Day 7 and Day 14.
During CT acquisition on Day 0, the pigs received an IM injection of anesthesia. The animals were maintained under anesthesia until the CT acquisition at T=2 h (2 h after dermal filler injection session). Between these CT acquisitions, the animals were under surveillance in the recovery room on a heating mat with fluidotherapy. At the end of the CT acquisition at T=2 h, the pigs received a tattoo around each injected site. During the CT acquisitions at T=4 h and on Days 1, 3, 7 and 14, pigs received an IM injection of anesthesia. For the CT-scans, animals were positioned in dorsal recumbency and acquisitions were centered on the injection sites. The parameters of the CT-scan are described in Table 5.
The CT acquisition was analyzed with the software Avizo version 9.2.0. The objective of this analysis was to assess the degradation over time of the dermal filler injected by SC route after injection of different test solutions.
An image segmentation processing was performed on each CT acquisition. First, a manual pre-segmentation was performed around each nodule in order to roughly isolate the voxels corresponding to dermal filler product, which defined a Region of Interest (ROI). Second, an automatic segmentation was applied on the previously defined ROI using a global grey level thresholding procedure.
On day 0, a farm pig received ten (10) SC injections of Radiesse® dermal filler 0.5 mL (ventral area) (10 nodules in total). One hour after filler injections (T=1 h), 1.5 mL of one of eight test hyperosmotic solutions (1-8 solutions, Table 5) was injected at an injection site. One injection site was untreated and one injection site was treated with normal saline (0.9% wt/v NaCl).

`[Ca+2].[Cl-].[Cl-]` [sol 4, Calcium chloride]: in data set [1], the “local tolerance at injection site” value is listed as “large wound on pigs”. In data set [1] (listed as CaCl2), the “local tolerance at injection site” value is on record as “strong local irritating effect”. For the same compound, the “local tolerance at injection site” value in data set [1] (listed as ClCl2) is listed as “severe skin necrosis”. Besides, the “nodule visibility / degradation of filler at end of study” value in data set [2] (Day 14, CT 3D models) is on record as “largely degraded/dispersed the Radiesse® dermal filler”. Further, the “Change in Volume as percent of Injected Volume, Day 14/15” value in data set [2] (Example 3 (Day 14), mean) is 169.73* percent. Also, in data set [2] (Example 3, mean), the “Change in Volume as percent of Injected Volume, Day 0 + 2 h” value came to 162.46%; the “Change in Volume as percent of Injected Volume, Day 0 + 4 h” value was determined as 157.72%; the “Change in Volume as percent of Injected Volume, Day 1” value is 145.42* percent; the “Change in Volume as percent of Injected Volume, Day 3” value is 174.24* percent. In addition, in data set [2] (Example 3, mean), the “Change in Volume as percent of Injected Volume, Day 7” value is 175.91* percent. In data set [2] (Example 3, mean, 1.5 mL solution into 500 μl nodule), the “Change in Volume as percent of Injected Volume, Day 0 + 1 h 15” value is listed as 170.60* percent.
